Reference: patent US20040220268A1, “Compound that directly stimulates phospholipase C activity” (priority 2003, published 2004)

Assays:
PI3-kinase = experiment: Akt phosphorylation in U937 cells; assay type: cell-based, human; details: 50 μM, data not shown
Excerpt: The result led us to check whether the compound act specifically on PLC or act on other enzymes that recognize phosphoinositols as substrates such as phosphoinositide-3-kinase (PI3-kinase). For this, we tested the effect of m-3M3FBS on the Akt phosphorylation that is dependent on the PI3-kinase in U937 cells. […] The result support our notion that m-3M3FBS acts specifically on PLC.

U937 cells = experiment: [Ca2+]i measurement with fura-2; assay type: cell-based, human; details: 25 μM
Method: (§1) Neutrophils and HL60, and differentiated HL60, U937, NIH3T3, and PC12 cells were loaded with fura-2 and then stimulated with 25 μM of m-3M3FBS. Changes in the 340 nm/380 nm excitation ratio were monitored, and converted to [Ca^2+]i levels. Data are presented as means ±S. E. M. of three independent experiments.
(§2) U937 (human histiocytic lymphoma cells), HL60 (human promyelocytic leukemia cells), NIH3T3 (NIH Swiss mouse embryo fibroblasts), and PC12 (rat adrenal pheochromocytoma cells) were obtained from the American Type Culture Collection (Rockville, Md.) and HeLa (human adenocarcinoma cells) Tet-off cells were purchased from Clontech (Palo Alto, Calif., U.S.A.) and maintained as recommended. The cells were maintained at about 1×10^6 cells/ml under standard incubator conditions (humidified atmosphere, 95% air, 5% CO2, 37° C.). HL60 cells were induced to differentiate into the granulocyte phenotype by adding dimethylsulfoxide (DMSO) (final concentration 1.25% v/v) for 5 days, as has been described before (Ithoh et al., 1998).
(§3) Freshly prepared human neutrophils were incubated in serum free RPMI 1640 medium with 3 μM of fura-2/AM at 37° C. for 30 min with continuous stirring. After washing with serum free RPMI 1640 medium, the cells were suspended in serum free RPMI containing 250 μM of sulfinpyrazone to prevent dye leakage. About 2×10^6 cells were suspended in Ca^2+ free Locke's solution (158.4 mM NaCl, 5.6 mM KCl, 1.2 mM MgCl2, 5 mM HEPES pH 7.3, 10 mM glucose, and 0.2 mM EGTA) for each measurement. Changes in the fluorescence ratio were measured at an emission wavelength of 500 nm for dual excitation wavelengths at 340 nm and 380 nm. The calibration of the fluorescence ratio versus [Ca^2+]i was performed as described by Grynkiewicz (Grynkiewicz et al., 1985).

[1] = tested on: differentiated HL60 cells; experiment: [Ca2+]i measurement with fura-2; assay type: cell-based, human; details: 25 μM
Method: as §1, §2, §3

HL60 cells = experiment: [Ca2+]i measurement with fura-2; assay type: cell-based, human; details: 25 μM
Method: as §1, §2, §3

human neutrophils = experiment: Cross-desensitization of [Ca2+]i responses in neutrophils; assay type: cell-based; details: extracellular calcium free
Method: FIG. 5 describes cross-desensitization experiments. Fura-2-loaded neutrophils were pretreated with m-3M3FBS (25 μM) and then rechallenged with ATP (500 μM) or WKYMVm (1 μM) in this or in the reverse order in the extracellular calcium free condition. Changes in the 340 nm/380 nm excitation ratio were monitored, and converted to [Ca^2+]i levels. The results shown are representative of three independent experiments.
as §3

phospholipase D = experiment: In vitro activity of phospholipase D; assay type: biochemical; details: data not shown
[2] = tested on: PTX-sensitive Gi-proteins; experiment: PTX sensitivity of [Ca2+]i increase in neutrophils; assay type: cell-based, human; details: PTX 1 μg/ml for 90 min; m-3M3FBS 25 μM, fMLF 1 μM
Method: Isolated neutrophils were preincubated with PTX (1 μg/ml) or vehicle for 90 min at 37° C. and stimulated with m-3M3FBS, FMLF, or ATP at concentrations of 25, 1, and 500 μM, respectively. Changes in the excitation ratios at 340 nm/380 nm were monitored. Data are presented as means ±S. E. M. of two independent experiments (A). cAMP levels were determined by a radio receptor assay. Prepared cells were treated with m-3M3FBS (25 μM) or histamine (100 μM) and then lysed with Tris-EDTA. After removing the supernatant, [ 3H] cAMP and protein were added, and the amount of [^3H] cAMP-protein complex was determined. The amount of unlabeled cAMP (in the sample) was then calculated by measuring the protein-bound radioactivity. Data are presented as means ±S. E. M. of two independent experiments (B). RGS2-GFP inducible HeLa cells were cultured for 48 h in the absence or in the presence of tetracycline, and the induction of RGS2-GFP was confirmed by Western blot analysis using anti-GFP antibody (C). RGS2-GFP inducible HeLa cells were cultured for 48 h in the absence or in the presence of tetracycline and loaded with fura-2. Cells were treated with histamine (100 μM) or m-3M3FBS (25 μM), and changes in the 340 nm/380 nm ratios were monitored and converted to [Ca^2+]i values. The results shown are representative of three independent experiments (C).
as §3

`Cc1cc(C)c(S(=O)(=O)Nc2cccc(C(F)(F)F)c2)c(C)c1` [m-3M3FBS, 2,4,6-Trimethyl-N-(meta 3-trifluoromethyl-phenyl)-benzenesulfonamide] was tested, and the “phosphorylation level of Akt” value (PI3-kinase) was “couldn't significantly increase”, the calcium increase (U937 cells) was “induced calcium increase” and the calcium increase [1] was “induced calcium increase”. For the same compound, the calcium increase (HL60 cells) was “induced calcium increase”, the “[Ca2+]i response when given after ATP or WKYMVm” value (human neutrophils; 25 μM after ATP 500 μM or WKYMVm 1 μM) was “elicited still further [Ca^2+]i increases” and the “effect of prestimulation on cellular response to ATP” value (human neutrophils; m-3M3FBS 25 μM, then ATP 500 μM) was “significantly reduced”. The “effect of prestimulation on cellular response to WKYMVm” value (human neutrophils; m-3M3FBS 25 μM, then WKYMVm 1 μM) was “significantly reduced”, the “activity of phospholipase D” value (phospholipase D) was “did not affect” and the “effect of PTX preincubation on the induced calcium increase” value [2] was “insensitive to PTX”.
